Test results taken from patent US5643601A, “Phospholipid-and fluorocarbon-containing cosmetic” (Lancaster Group AG, priority 1992, dated 1997).
Read-outs that look alike come from different tables or passages of the source.

What was measured:
[1] = O2 solubility of fluorocarbons (Table 1); format: physicochemical
Excerpt: (§2) Some selected fluorocarbons and their O2 solubility, their vapour pressure and their critical solubility temperature are shown in Table 1.

[2] = Critical solubility temperature (CST) of fluorocarbons in n-hexane
Excerpt: (§1) The fluorocarbons can be selected for O2 solubility, partial vapour pressure and lipid solubility according to the specific intended application. The critical solubility temperature of the fluorocarbons (CST) in n-hexane correlates with their solubility in lipids, e.g. cell membranes, and is thus a measure of the rate of release through the skin. […] It is thus possible by mixing various fluorocarbons to set defined CST values which are often not realisable by means of individual compounds.
Starting from these values, the desired characteristics for the penetration of the skin with the aid of a cosmetic composition can be selected for mixtures of fluorocarbons.

[3] = Vapour pressure of fluorocarbons (Table 1); format: physicochemical
Excerpt: as §2

skin [4] = assay: Release of fluorocarbons through the skin
Excerpt: as §1

skin [5] = settings: in words; cited from earlier work

Row | Structure (SMILES) | O2 solubility [1] | CST (critical solubility temperature) ([2]; in n-hexane) [°C] | Vapour Pressure P37° C. ([3]; 37° C.) [mm Hg] | Vapour Pressure P37° C. [3] [mm Hg] | rate of release through the skin / half-life of release (skin [4]; in words, correlated with CST) | CST (critical solubility temperature) [2] [°C] | rate of release through the skin / half-life of release (skin [4]) | skin irritation / side effects (skin [5])
1 | FC(F)(F)C(F)(F)C(F)(F)C(F)(F)C=CC(F)(F)C(F)(F)C(F)(F)C(F)(F)F [Bis-F(butyl)ethene] | 50 ml of O2 /100 ml of Fc | 22.5 | 12.6 |  |  |  |  | 
2 | FC1(F)OC(F)(F)C(F)(F)N(C(F)(F)C2(F)C(F)(F)C(F)(F)C(F)(F)C(F)(F)C2(F)F)C1(F)F [F-cyclohexylmethyl-morpholine] | 42 ml of O2 /100 ml of Fc | 38.5 | 4 |  |  |  |  | 
3 | FC(F)(F)C(F)(F)C(F)(F)C(F)(F)C(F)(F)C(F)(F)OC(F)(F)C(F)(F)C(F)(F)C(F)(F)C(F)(F)C(F)(F)F [F-dihexyl ether] | 45 ml of O2 /100 ml of Fc | 59 | 2 |  |  |  |  | 
4 | FC(F)(F)C(F)(F)C(F)(F)C(F)(F)C(F)(F)C(F)(F)F [F-hexane] | 58 ml of O2 /100 ml of Fc |  |  | 414 |  |  |  | 
5 | FC(F)(F)C1(F)C(F)(F)C(F)(F)C(F)(F)C(F)(F)C1(F)F [F-methylcyclohexane] | 57 ml of O2 /100 ml of Fc | 8.2 | 180 |  |  |  |  | 
6 | FC(F)(F)C(F)(F)C(F)(F)C(F)(F)N(C(F)(F)C(F)(F)C(F)(F)C(F)(F)F)C(F)(F)C(F)(F)C(F)(F)C(F)(F)F [F-tributylamine] | 40 ml of O2 /100 ml of Fc | 59 | 1 |  | high half-life of release |  |  | 
7 | FC(F)(F)C(F)(F)C(F)(F)N(C(F)(F)C(F)(F)C(F)(F)F)C(F)(F)C(F)(F)C(F)(F)F [F-tripropylamine] | 45 ml of O2 /100 ml of Fc |  | 18.5 |  |  | 43 |  | 
8 | FC(F)(F)C(F)(F)C(F)(F)C(F)(F)C1(F)OC(F)(F)C(F)(F)C1(F)F (stereo not drawn) [Perfluorobutyl-tetrahydrofuran] | 52 ml of O2 /100 ml of Fc | 29 | 51 |  |  |  |  | 
9 | FC1(F)C(F)(F)C(F)(F)C2(F)C(F)(F)C(F)(F)C(F)(F)C(F)(F)C2(F)C1(F)F (stereo not drawn) [Perfluorodecalin] | 40 ml of O2 /100 ml of Fc |  | 12.5 |  |  | 22 | released relatively rapidly | 
10 | FC(F)(F)C(F)(F)C(F)(F)C(F)(F)C(F)(F)C(F)(F)C(F)(F)C(F)(F)Br [Perfluorooctyl bromide] | 50 ml of O2 /100 ml of Fc |  | 14 |  |  | -24.5 | released relatively rapidly | 
11 | OO [hydrogen peroxide] |  |  |  |  |  |  |  | considerable side effects such as the skin irritations
